# Source: article PMC5218480 (PLoS ONE, 2017)
# Tested on: MV-4-11 cells
# Assay: Gene expression microarray analysis (Affymetrix PrimeView) and GSEA
# Assay type: cell-based, human
# Parameters: RFU PODN (11730768_x_at) / Fold change /veh PODN (11730768_x_at) / RFU LINC00158 (11744669_a_at) / Fold change /veh LINC00158 (11744669_a_at) / RFU DUSP10 (11751237_a_at) / Fold change /veh DUSP10 (11751237_a_at) / RFU ID3 (11757404_x_at) / Fold change /veh ID3 (11757404_x_at) / RFU PLEKHG5 (11737974_s_at) / Fold change /veh PLEKHG5 (11737974_s_at) / RFU LRRC4B (11730491_at) / Fold change /veh LRRC4B (11730491_at) / RFU GIMAP4 (11747438_a_at) / Fold change /veh GIMAP4 (11747438_a_at) / RFU KRT8 (11758183_x_at) / Fold change /veh KRT8 (11758183_x_at) / RFU CNN1 (11734310_a_at) / Fold change /veh CNN1 (11734310_a_at) / RFU VPS37D (11726825_at) / Fold change /veh VPS37D (11726825_at) / RFU C10orf10 (11716522_x_at) / Fold change /veh C10orf10 (11716522_x_at) / RFU KIR2DL2 /// KIR2DL4 /// KIR2DL5A /// KIR2DL5B /// KIR2DS1 /// KIR2DS2 /// KIR2DS3 /// KIR2DS4 /// KIR3DL3 /// KIR3DL3 /// KIR3DS1 (11738374_at) / Fold change /veh KIR2DL2 /// KIR2DL4 /// KIR2DL5A /// KIR2DL5B /// KIR2DS1 /// KIR2DS2 /// KIR2DS3 /// KIR2DS4 /// KIR3DL3 /// KIR3DL3 /// KIR3DS1 (11738374_at) / RFU C1QL1 (11718748_at) / Fold change /veh C1QL1 (11718748_at) / RFU TMPRSS4 (11747572_a_at) / Fold change /veh TMPRSS4 (11747572_a_at) / RFU HAMP (11756126_x_at) / Fold change /veh HAMP (11756126_x_at) / RFU RNFT2 (11725882_a_at) / Fold change /veh RNFT2 (11725882_a_at) / RFU NR4A2 (11747474_a_at) / Fold change /veh NR4A2 (11747474_a_at) / RFU ABCC12 (11746883_a_at) / Fold change /veh ABCC12 (11746883_a_at) / RFU TMEM136 (11760407_x_at) / Fold change /veh TMEM136 (11760407_x_at) / RFU CLDN22 /// WWC2 (11732394_at) / Fold change /veh CLDN22 /// WWC2 (11732394_at) / RFU HLA-DPB1 (11760878_x_at) / Fold change /veh HLA-DPB1 (11760878_x_at) / RFU SPINT1 (11716480_a_at) / Fold change /veh SPINT1 (11716480_a_at) / RFU GAP43 (11754022_s_at) / Fold change /veh GAP43 (11754022_s_at) / RFU A4GNT (11735810_at) / Fold change /veh A4GNT (11735810_at) / RFU PRB3 (11715151_x_at) / Fold change /veh PRB3 (11715151_x_at) / RFU TUBB4B (11761932_at) / Fold change /veh TUBB4B (11761932_at) / RFU CAPN14 (11732068_a_at) / Fold change /veh CAPN14 (11732068_a_at) / RFU TMCC2 (11721928_a_at) / Fold change /veh TMCC2 (11721928_a_at) / RFU IRGQ (11745062_a_at) / Fold change /veh IRGQ (11745062_a_at) / RFU FAM174B (11720279_a_at) / Fold change /veh FAM174B (11720279_a_at) / RFU TMPRSS4 (11748680_a_at) / Fold change /veh TMPRSS4 (11748680_a_at) / RFU FAM212B (11763350_a_at) / Fold change /veh FAM212B (11763350_a_at) / RFU PLEKHG5 (11743358_a_at) / Fold change /veh PLEKHG5 (11743358_a_at) / RFU ZSCAN30 (11745921_a_at) / Fold change /veh ZSCAN30 (11745921_a_at) / RFU CMKLR1 (11741424_a_at) / Fold change /veh CMKLR1 (11741424_a_at) / RFU LOC101060620 /// MAPK8IP1 (11723275_at) / Fold change /veh LOC101060620 /// MAPK8IP1 (11723275_at) / RFU SPTSSB (11747773_x_at) / Fold change /veh SPTSSB (11747773_x_at) / RFU PRSS12 (11739890_at) / Fold change /veh PRSS12 (11739890_at) / RFU BIN1 (11741810_x_at) / Fold change /veh BIN1 (11741810_x_at) / RFU WNT11 (11732464_a_at) / Fold change /veh WNT11 (11732464_a_at) / RFU C10orf10 (11716521_a_at) / Fold change /veh C10orf10 (11716521_a_at) / RFU C5orf56 (11738089_at) / Fold change /veh C5orf56 (11738089_at) / RFU CYB561 (11721691_x_at) / Fold change /veh CYB561 (11721691_x_at) / RFU ANKRD19P (11752326_a_at) / Fold change /veh ANKRD19P (11752326_a_at) / RFU OR2T12 /// OR2T33 /// OR2T8 (11738714_s_at) / Fold change /veh OR2T12 /// OR2T33 /// OR2T8 (11738714_s_at) / RFU VCAN (11748164_a_at) / Fold change /veh VCAN (11748164_a_at) / RFU JSRP1 (11732532_at) / Fold change /veh JSRP1 (11732532_at) / RFU KRTAP10-11 (11738290_x_at) / Fold change /veh KRTAP10-11 (11738290_x_at) / RFU MYO3A (11730013_a_at) / Fold change /veh MYO3A (11730013_a_at) / RFU EBF3 (11725865_a_at) / Fold change /veh EBF3 (11725865_a_at) / RFU CAMK2N1 (11719241_x_at) / Fold change /veh CAMK2N1 (11719241_x_at) / RFU C5orf56 (11738088_a_at) / Fold change /veh C5orf56 (11738088_a_at) / RFU OLFML3 (11715873_a_at) / Fold change /veh OLFML3 (11715873_a_at) / RFU LOC100653217 /// NTM (11731650_a_at) / Fold change /veh LOC100653217 /// NTM (11731650_a_at) / RFU MAPK11 (11762145_a_at) / Fold change /veh MAPK11 (11762145_a_at) / RFU FIZ1 (11724087_x_at) / Fold change /veh FIZ1 (11724087_x_at) / RFU OASL (11726364_x_at) / Fold change /veh OASL (11726364_x_at) / RFU SOX15 (11748057_x_at) / Fold change /veh SOX15 (11748057_x_at) / RFU CD79A (11719716_a_at) / Fold change /veh CD79A (11719716_a_at) / RFU HIST1H1D (11736915_at) / Fold change /veh HIST1H1D (11736915_at) / RFU CASKIN2 (11723855_a_at) / Fold change /veh CASKIN2 (11723855_a_at) / RFU LOC730098 (11760151_x_at) / Fold change /veh LOC730098 (11760151_x_at) / RFU OR4N2 (11742367_at) / Fold change /veh OR4N2 (11742367_at) / RFU PRRT2 (11749266_a_at) / Fold change /veh PRRT2 (11749266_a_at) / RFU SNX32 (11753110_a_at) / Fold change /veh SNX32 (11753110_a_at) / RFU CDHR5 (11726645_a_at) / Fold change /veh CDHR5 (11726645_a_at) / RFU RCAN1 (11760418_a_at) / Fold change /veh RCAN1 (11760418_a_at) / RFU FAM167A (11723789_a_at) / Fold change /veh FAM167A (11723789_a_at) / RFU FAM26E (11764081_at) / Fold change /veh FAM26E (11764081_at) / RFU ISYNA1 (11749810_s_at) / Fold change /veh ISYNA1 (11749810_s_at) / RFU ACY1 (11761880_at) / Fold change /veh ACY1 (11761880_at) / RFU 11764098_at / Fold change /veh 11764098_at / RFU SAMD14 (11745864_x_at) / Fold change /veh SAMD14 (11745864_x_at) / RFU NPB (11741838_a_at) / Fold change /veh NPB (11741838_a_at) / RFU TMPRSS6 (11731388_a_at) / Fold change /veh TMPRSS6 (11731388_a_at) / RFU KRTAP10-2 (11738614_at) / Fold change /veh KRTAP10-2 (11738614_at) / RFU ARHGAP8 /// PRR5-ARHGAP8 (11727945_x_at) / Fold change /veh ARHGAP8 /// PRR5-ARHGAP8 (11727945_x_at) / RFU KRTAP5-7 /// NADSYN1 (11734609_at) / Fold change /veh KRTAP5-7 /// NADSYN1 (11734609_at) / RFU RASL12 (11751679_a_at) / Fold change /veh RASL12 (11751679_a_at) / RFU CDKN2B (11736163_a_at) / Fold change /veh CDKN2B (11736163_a_at) / RFU PRF1 (11729649_at) / Fold change /veh PRF1 (11729649_at) / RFU, ZNF638 /// ZNF638-IT1 / Fold change vs veh, ZNF638 /// ZNF638-IT1 / RFU, PANK3 / Fold change vs veh, PANK3 / RFU, SH3YL1 / Fold change vs veh, SH3YL1 / RFU, ZEB2 / Fold change vs veh, ZEB2 / RFU, NRIP1 / Fold change vs veh, NRIP1 / RFU, PTTG1IP / Fold change vs veh, PTTG1IP / RFU, CAPN2 / Fold change vs veh, CAPN2 / RFU, MED14 / Fold change vs veh, MED14 / RFU, SNORA58 / Fold change vs veh, SNORA58 / RFU, C1orf63 / Fold change vs veh, C1orf63 / RFU, LRRFIP1 / Fold change vs veh, LRRFIP1 / RFU, NDUFAF7 / Fold change vs veh, NDUFAF7 / RFU, SLC12A2 / Fold change vs veh, SLC12A2 / RFU, IBTK / Fold change vs veh, IBTK / RFU, ESF1 / Fold change vs veh, ESF1 / Fold change vs veh, TMEM50B / RFU, TAOK1 / Fold change vs veh, TAOK1 / RFU, ACBD3 / Fold change vs veh, ACBD3 / RFU, TMA16 / Fold change vs veh, TMA16 / RFU, RWDD3 / Fold change vs veh, RWDD3 / RFU, BCAT1 / Fold change vs veh, BCAT1 / RFU, EDEM3 / Fold change vs veh, EDEM3 / RFU, TMEM33 / Fold change vs veh, TMEM33 / RFU, WDR75 / Fold change vs veh, WDR75 / RFU, AHCTF1 / Fold change vs veh, AHCTF1 / RFU, TFRC / Fold change vs veh, TFRC / RFU, ZDHHC17 / Fold change vs veh, ZDHHC17 / RFU, NOM1 / Fold change vs veh, NOM1 / RFU, ARL8B / Fold change vs veh, ARL8B / RFU, ZBTB11 / Fold change vs veh, ZBTB11 / RFU, TAMM41 / Fold change vs veh, TAMM41 / RFU, KIAA1704 /// LOC100996395 / Fold change vs veh, KIAA1704 /// LOC100996395 / RFU, ING1 / Fold change vs veh, ING1 / RFU, TRMT61B / Fold change vs veh, TRMT61B / RFU, FUBP3 / Fold change vs veh, FUBP3 / RFU, TP53 / Fold change vs veh, TP53 / RFU, TNKS2 / Fold change vs veh, TNKS2 / RFU, ZFP14 / Fold change vs veh, ZFP14 / RFU, ACTR2 / Fold change vs veh, ACTR2 / RFU, PPP3R1 / Fold change vs veh, PPP3R1 / RFU, PIK3R1 / Fold change vs veh, PIK3R1 / RFU, HNRNPA1 / Fold change vs veh, HNRNPA1 / RFU, RNF170 / Fold change vs veh, RNF170 / RFU, ZNF28 / Fold change vs veh, ZNF28 / RFU, RNGTT / Fold change vs veh, RNGTT / RFU, OGT / Fold change vs veh, OGT / RFU, BRD1 / Fold change vs veh, BRD1 / RFU, MARS / Fold change vs veh, MARS / RFU, ZNF655 / Fold change vs veh, ZNF655 / RFU, FAHD1 / Fold change vs veh, FAHD1 / RFU, BDP1 / Fold change vs veh, BDP1 / RFU, LRRCC1 / Fold change vs veh, LRRCC1 / RFU, ARID1A / Fold change vs veh, ARID1A / RFU, ZNF146 / Fold change vs veh, ZNF146 / RFU, ZNF330 / Fold change vs veh, ZNF330 / RFU, GPN3 / Fold change vs veh, GPN3 / RFU, C9orf123 / Fold change vs veh, C9orf123 / RFU, N4BP2L2 / Fold change vs veh, N4BP2L2 / RFU, ARFIP1 / Fold change vs veh, ARFIP1 / RFU, FAM179B / Fold change vs veh, FAM179B / RFU, BCL10 / Fold change vs veh, BCL10 / RFU, UHRF1BP1L / Fold change vs veh, UHRF1BP1L / RFU, BET1 / Fold change vs veh, BET1 / RFU, CNOT2 / Fold change vs veh, CNOT2 / RFU, ZNF268 / Fold change vs veh, ZNF268 / Fold change vs veh, ZNF507 / RFU, DGCR2 / Fold change vs veh, DGCR2 / RFU, WDSUB1 / Fold change vs veh, WDSUB1 / Fold change vs veh, HSP90B1 /// MIR3652 / RFU, ADSS / Fold change vs veh, ADSS / RFU, GK / Fold change vs veh, GK / RFU, ZNF148 / Fold change vs veh, ZNF148 / RFU, TAF9 / Fold change vs veh, TAF9 / RFU, SLC1A5 / Fold change vs veh, SLC1A5 / RFU, SLMO2 / Fold change vs veh, SLMO2 / RFU, ABCC4 / Fold change vs veh, ABCC4 / RFU, LOC101060439 /// RAP1B / Fold change vs veh, LOC101060439 /// RAP1B / RFU, RFX7 / Fold change vs veh, RFX7 / RFU, GTPBP10 / Fold change vs veh, GTPBP10 / RFU, CNEP1R1 / Fold change vs veh, CNEP1R1 / RFU, BIVM-ERCC5 /// ERCC5 / Fold change vs veh, BIVM-ERCC5 /// ERCC5 / RFU, ILF3 / Fold change vs veh, ILF3 / RFU 11762660_at / Fold change /veh 11762660_at / RFU VCAN (11757783_s_at) / Fold change /veh VCAN (11757783_s_at) / RFU DDX43 (11728927_at) / Fold change /veh DDX43 (11728927_at) / RFU KRT8 (11758188_x_at) / Fold change /veh KRT8 (11758188_x_at) / RFU NKD1 (11759106_at) / Fold change /veh NKD1 (11759106_at) / RFU SRD5A1 (11742802_a_at) / Fold change /veh SRD5A1 (11742802_a_at) / RFU TPSAB1 /// TPSB2 (11721975_s_at) / Fold change /veh TPSAB1 /// TPSB2 (11721975_s_at) / RFU GSTM3 (11746129_a_at) / Fold change /veh GSTM3 (11746129_a_at) / RFU IL23R (11737362_x_at) / Fold change /veh IL23R (11737362_x_at) / RFU TMEM51 (11727254_a_at) / Fold change /veh TMEM51 (11727254_a_at) / RFU PIWIL2 (11732686_x_at) / Fold change /veh PIWIL2 (11732686_x_at) / RFU ORM1 (11744905_x_at) / Fold change /veh ORM1 (11744905_x_at) / RFU CCDC152 (11743942_at) / Fold change /veh CCDC152 (11743942_at) / RFU ECM1 (11717891_a_at) / Fold change /veh ECM1 (11717891_a_at) / RFU IL23R (11748794_a_at) / Fold change /veh IL23R (11748794_a_at) / RFU TNFAIP8L3 (11732012_x_at) / Fold change /veh TNFAIP8L3 (11732012_x_at) / RFU MBOAT4 (11741988_at) / Fold change /veh MBOAT4 (11741988_at) / RFU 11764193_at / Fold change /veh 11764193_at / RFU TMEM53 (11763286_at) / Fold change /veh TMEM53 (11763286_at) / RFU MAGEB2 (11727129_at) / Fold change /veh MAGEB2 (11727129_at) / RFU TMEM200A (11744735_a_at) / Fold change /veh TMEM200A (11744735_a_at) / RFU CCDC152 (11751479_a_at) / Fold change /veh CCDC152 (11751479_a_at) / RFU FAM211A (11726209_a_at) / Fold change /veh FAM211A (11726209_a_at) / RFU RGS16 (11746705_a_at) / Fold change /veh RGS16 (11746705_a_at) / RFU VCAN (11755009_s_at) / Fold change /veh VCAN (11755009_s_at) / RFU RHOB (11743442_s_at) / Fold change /veh RHOB (11743442_s_at) / RFU RGS16 (11720943_a_at) / Fold change /veh RGS16 (11720943_a_at) / RFU RGS16 (11720944_at) / Fold change /veh RGS16 (11720944_at) / RFU, VPS4B / Fold change vs veh, VPS4B / RFU, CREB1 / Fold change vs veh, CREB1 / RFU, DNAJC13 / Fold change vs veh, DNAJC13 / RFU, GNAQ / Fold change vs veh, GNAQ / RFU, CDK5R1 / Fold change vs veh, CDK5R1 / RFU, ZRANB3 / Fold change vs veh, ZRANB3 / RFU, CUL4A / Fold change vs veh, CUL4A / RFU, CCNY / Fold change vs veh, CCNY / RFU, UFL1 / Fold change vs veh, UFL1 / RFU, COG3 / Fold change vs veh, COG3 / RFU, DIAPH2 / Fold change vs veh, DIAPH2 / RFU, SKA2 / Fold change vs veh, SKA2 / RFU, AFF3 / Fold change vs veh, AFF3 / RFU, LMF1 / Fold change vs veh, LMF1 / RFU, IPO11 / Fold change vs veh, IPO11 / RFU, DFFB / Fold change vs veh, DFFB / RFU, FOXP1 / Fold change vs veh, FOXP1 / RFU, CARD8 / Fold change vs veh, CARD8 / RFU, STRN3 / Fold change vs veh, STRN3 / RFU, ADK / Fold change vs veh, ADK / RFU, RASSF2 / Fold change vs veh, RASSF2 / RFU, WIPF1 / Fold change vs veh, WIPF1 / RFU, LARP1B / Fold change vs veh, LARP1B / RFU, RASA1 / Fold change vs veh, RASA1 / RFU, RB1 / Fold change vs veh, RB1 / RFU, PPFIA1 / Fold change vs veh, PPFIA1 / RFU, MAT2A / Fold change vs veh, MAT2A / RFU, CCT5 / Fold change vs veh, CCT5 / RFU, WDR92 / Fold change vs veh, WDR92 / RFU, CUX1 / Fold change vs veh, CUX1 / RFU, TTC7A / Fold change vs veh, TTC7A / RFU, TMEM135 / Fold change vs veh, TMEM135 / RFU, DEPTOR / Fold change vs veh, DEPTOR / RFU, CPM / Fold change vs veh, CPM / RFU, DNAJB6 / Fold change vs veh, DNAJB6 / RFU, CACNA2D3 / Fold change vs veh, CACNA2D3 / RFU, DTX4 / Fold change vs veh, DTX4 / RFU, TFCP2 / Fold change vs veh, TFCP2 / RFU, GMCL1 /// GMCL1P1 / Fold change vs veh, GMCL1 /// GMCL1P1 / RFU, AEBP2 / Fold change vs veh, AEBP2 / RFU, SNHG1 /// SNORD22 /// SNORD25 /// SNORD26 /// SNORD27 /// SNORD28 /// SNORD29 /// SNORD31 / Fold change vs veh, SNHG1 /// SNORD22 /// SNORD25 /// SNORD26 /// SNORD27 /// SNORD28 /// SNORD29 /// SNORD31 / Fold change (Aza/veh), C12orf56 (ProbeSet 11735607_a_at) / Fold change (ACY-1035/veh), C12orf56 (ProbeSet 11735607_a_at) / Fold change (Aza/veh), FGFR1OP (ProbeSet 11751329_s_at) / Fold change (ACY-1035/veh), FGFR1OP (ProbeSet 11751329_s_at) / Fold change (Aza/veh), VPS36 (ProbeSet 11739960_a_at) / Fold change (ACY-1035/veh), VPS36 (ProbeSet 11739960_a_at) / RFU SYPL1 (11715823_x_at) / Fold change /veh SYPL1 (11715823_x_at) / RFU IGFBP7 (11715501_s_at) / Fold change /veh IGFBP7 (11715501_s_at) / RFU REEP3 (11722064_at) / Fold change /veh REEP3 (11722064_at) / RFU IGLL1 (11728026_x_at) / Fold change /veh IGLL1 (11728026_x_at): dose or concentration left out as unconfirmed
# Conditions: MV-4-11 cells, 48 hours
structure (smiles),measurement,value
Nc1ncn([C@@H]2O[C@H](CO)[C@@H](O)[C@H]2O)c(=O)n1 [azacitidine],Fold change /veh RNFT2 (11725882_a_at),1.12
